In US20070088069A1, “Novel imidazoles” (Warner-Lambert Company LLC, priority 2005, published 2007):

How the values were obtained:
[1] = test system: Sterol Biosynthesis in L6 Rat Myoblast; experiment: Sterol biosynthesis in L6 rat myoblast (14C acetic acid into cholesterol); type: cell-based; settings: 3 hours pre-incubation, 3 hours 14C acetic acid labeling
Description: L6 rat myoblast purchased from ATCC(CRL-1458) were grown in T-150 vented culture flasks and seeded on 12-well culture plates at a density of 60,000 cells per well. The cells were grown in DMEM, (Dulbecco's Modified Eagle Medium) (Gibco, #10567-014) containing 10% heat inactivated FBS (Fetal Bovine Serum) (Gibco # 10082-139) for 72 hours until reaching confluence. The cells were pre-incubated in media with compound and 0.2% DMSO (dimethyl sulfoxide) for 3 hours and then labeled by incubating in medium containing compound, 0.2% DMSO and 1 μCi/per mL of ^14C acetic acid for an additional 3 hours. After labeling, the cells were washed once with 1×PBS (Gibco #14190-144) then lysed overnight at 4° C. in buffer containing 10% KOH and 78% (vol.) ethanol.
Lipid ester bonds were hydrolyzed by saponification of the lysates at 60° C. for 2 hours. […] The amount of ^14C cholesterol was quantified by scintillation counting in a Trilux 1450 plate reader (Wallac). The IC50 values were calculated from % inhibitions relative to negative controls vs. compound concentration on Microsoft excel 2000 data analysis wizard using a sigmoid inhibition curve model with formula: y=Bmax(1−(x^n/K^n+x^n))+y2 Where K is the IC50 for the inhibition curve, X is inhibitor concentration, Y is the response being inhibited and Bmax+Y2 is the limiting response as X approaches zero.

[2] = test system: Sterol Biosynthesis in Rat Hepatocytes; experiment: Sterol biosynthesis in rat hepatocytes (14C acetic acid into cholesterol); type: cell-based; settings: Hepatocyte, 4 hrs pre-incubation, 4 hrs 14C acetic acid labeling, read-out: IC50 in the cell assay (sterol biosynthesis in rat hepatocytes)
Description: Frozen rat hepatocytes purchased from XenoTech (cat# N400572) were seeded on 6-well collagen I coated plates at a density of 10^5 cells/per well. The cells were grown in DMEM, (Dulbecco's Modified Eagle Medium) (Gibco, #11054-020) containing 10% FBS (Fetal Bovine Serum) and 10 mM HEPES, (N-2-hydroxyethyl-piperazine-N^1-2-ethane sulfonic acid) (Gibco # 15630-080) for 24 hrs. The cells were pre-incubated with compounds for 4 hrs and then labeled by incubating in medium containing 1 μCi/per mL of ^14C acetic acid for an additional 4 hrs. After labeling, the cells were washed twice with 5 mM MOPS, (3-[N-morpholino]propane sulfonic acid) solution containing 150 mM NaCl and 1 mM EDTA and collected in the lysis buffer containing 10% KOH and 80% (vol.) ethanol.
In order to separate labeled cholesterol from labeled non-cholesterol lipids, the cells lysates were subject to saponification at 60° C. for 2 hrs. The lysates were then combined with 0.5 volume of H2O and 2 volumes of hexane, followed by 30 minutes of vigorous shaking. After the separation of two phases, the upper-phase solution was collected and combined with 5 volumes of scintillation cocktail. The amount of ^14C cholesterol was quantified by liquid scintillation counting. The IC50 values were calculated with GraphPad software (Prism 3.03).

[3] = target: T1, HMGCoA (3-Hydroxy-3-methylglutaryl CoA) Reductase (Rattus norvegicus, UniProt P51639); experiment: HMGCoA reductase assay with rat liver microsomes; type: biochemical; settings: 14C-HMGCoA, 45 min at 37° C., read-out: IC50 in the in vitro HMGCoA reductase assay
T1 construct: from tissue; host or cells: liver microsomes of male Sprague-Dawley rats fed cholestyramine
T1 sequence (P51639 1-887): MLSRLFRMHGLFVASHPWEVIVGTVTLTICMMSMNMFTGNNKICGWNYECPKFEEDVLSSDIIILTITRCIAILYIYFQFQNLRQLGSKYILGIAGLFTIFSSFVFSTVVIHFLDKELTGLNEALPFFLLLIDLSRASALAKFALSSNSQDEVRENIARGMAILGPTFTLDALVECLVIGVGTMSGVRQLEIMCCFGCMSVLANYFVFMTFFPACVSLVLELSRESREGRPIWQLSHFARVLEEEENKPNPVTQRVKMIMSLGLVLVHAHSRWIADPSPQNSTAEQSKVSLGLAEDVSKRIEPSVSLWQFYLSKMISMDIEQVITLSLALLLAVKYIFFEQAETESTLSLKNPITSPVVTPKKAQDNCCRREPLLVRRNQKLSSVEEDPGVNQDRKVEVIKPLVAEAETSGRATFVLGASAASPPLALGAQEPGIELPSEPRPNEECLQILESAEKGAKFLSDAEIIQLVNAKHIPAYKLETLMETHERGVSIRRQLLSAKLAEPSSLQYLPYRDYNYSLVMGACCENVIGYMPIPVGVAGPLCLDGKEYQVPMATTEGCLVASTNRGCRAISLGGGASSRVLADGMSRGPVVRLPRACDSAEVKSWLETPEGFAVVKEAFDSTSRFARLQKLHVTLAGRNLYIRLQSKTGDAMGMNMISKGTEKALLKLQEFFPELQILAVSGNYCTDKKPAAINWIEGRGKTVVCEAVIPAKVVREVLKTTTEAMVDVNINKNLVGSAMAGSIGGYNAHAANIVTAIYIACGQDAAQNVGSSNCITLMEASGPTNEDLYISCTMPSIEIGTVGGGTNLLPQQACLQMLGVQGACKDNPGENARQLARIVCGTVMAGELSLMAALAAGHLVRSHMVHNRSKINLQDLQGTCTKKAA
Description: Male Charles River Sprague-Dawley rats were fed with 2.5% cholestyramine in rat chow diets for 5 days before sacrificing. Livers were minced and homogenized in a sucrose homogenizing solution in an ice bath 10 times. Homogenates were diluted into a final volume of 200 mL, and centrifuged 15 min. with a Sorvall Centrifuge at 5° C., 10,000 rpm (12,000×G). The upper fat layer was removed and the supernatant decanted into fresh tubes. This step was repeated one more time before transferring the supernatant into ultracentrifuge tubes and centrifuged at 36,000 rpm (105,000×G) for an hour at 5° C. The resulting supernatant was discarded and the pellet was added to total of 15 mL 0.2 M KH2PO4. Pellets were homogenized gently by hand about 10 times. Samples were pooled and diluted into total of 60 mL buffer. The protein concentration of the homogenate was determined by the […] using a BCA (Bicinchoninic acid), kit from Pierce Chemical Company. 1 mL aliquots of microsomes were kept frozen in liquid nitrogen.
[3-^14C]-HMGCoA (57.0 mCi/mmol) was purchased from Amersham Biosciences, UK. […] Scintillation cocktail (Ultima-Flo-M) was added into each well and plates counted on a Trilux Microbeta Counter. The IC50 values were calculated with GraphPad software (Prism). […]

Compound `C[C@@H](NC(=O)c1nc(-c2ccc(F)cc2)n(CC[C@@H](O)C[C@@H](O)CC(=O)O)c1C1CC1)c1ccccc1` [Example 1, Sodium: (3R,5R)-7-[5-Cyclopropyl-2-(4-fluoro-phenyl)-4-((R)-1-Phenyl-ethylcarbamoyl)-imidazol-1-yl]-3,5-dihydroxy-heptanoate] has an IC50 [1] of 449 nM.
In the case of `C[C@H](c1ccccc1)N(C)C(=O)c1nc(-c2ccc(F)cc2)n(CC[C@@H](O)C[C@@H](O)CC(=O)O)c1C1CC1` [Example 2, Sodium; (3R,5R)-7-{5-Cyclopropyl-2-(4-fluoro-phenyl)-4-[methyl-((R)-1-phenyl-ethyl)-carbamoyl]-imidazol-1-yl}-3,5-dihydroxy-heptanoate], the IC50 [2] is reported as 0.27 nM and the IC50 [3] is reported as 36.8 nM.
